Measured values: publication PMC9276671, “A first-in-human Phase I dose-escalation trial of the novel therapeutic peptide, ALM201, demonstrates a favourable safety profile in unselected patients with ovarian cancer and other advanced solid tumours” (British Journal of Cancer, 2022)
No end group written: not given here.

Assay: Plasma pharmacokinetics of ALM201 in Phase I patients (validated LC-MS/MS, Phoenix WinNonlin)
Settings: for AUC(0-t): AUC0-t; for AUC(0-t) / Cmax: Gmean (CV); for level at 0.25 h: day 1 cycle 1, 0.25 h after dosing; for level at 0.75 h: day 1 cycle 1, 0.75 h after dosing; for Tmax: median
[1] = cycle 1, excluding patient 03.012
[2] = human, plasma, sc, 10 mg, 10 mg SC, day 1 cycle 1, n = 1, plasma LC-MS/MS
[3] = human, plasma, sc, 10 mg, 10 mg SC, day 3 cycle 1, n = 1, plasma LC-MS/MS
[4] = human, plasma, sc, 10 mg, 10 mg SC, day 18 cycle 1, n = 1, plasma LC-MS/MS
[5] = human, plasma, sc, 10 mg, 10 mg SC, day 18 cycle 2, n = 1, plasma LC-MS/MS
[6] = human, plasma, sc, 10 mg, 10 mg SC, day 18 cycle 4, n = 1, plasma LC-MS/MS
[7] = human, plasma, sc, 10 mg, 10 mg SC, day 18 cycle 6, n = 1, plasma LC-MS/MS
[8] = human, plasma, sc, 10 mg, Plasma concentration, geometric mean (CV%), 10 mg SC, n = 1, LC-MS/MS
[9] = human, plasma, sc, 20 mg, 20 mg SC, day 1 cycle 1, n = 1, plasma LC-MS/MS
[10] = human, plasma, sc, 20 mg, 20 mg SC, day 3 cycle 1, n = 1, plasma LC-MS/MS
[11] = human, plasma, sc, 20 mg, 20 mg SC, day 18 cycle 1, n = 1, plasma LC-MS/MS
[12] = human, plasma, sc, 20 mg, 20 mg SC, day 18 cycle 2, n = 1, plasma LC-MS/MS
[13] = human, plasma, sc, 20 mg, Plasma concentration, geometric mean (CV%), 20 mg SC, n = 1, LC-MS/MS

For IRQQPRDPPTETLELEVSPDPAS [ALM201], the “Plasma concentration, geometric mean (CV%)” value (“Plasma concentration … (CV%)” for short) (10 mg SC, day 1 cycle 1, 4 h after dosing, n = 1, LC-MS/MS) was “NQ (not quantifiable (less than assay limit of quantification of 100 ng/mL))”, the “Plasma concentration … (CV%)” value (10 mg SC, day 1 cycle 1, 5 h after dosing, n = 1, LC-MS/MS) was “NQ (not quantifiable (less than assay limit of quantification of 100 ng/mL))” and the “Plasma concentration … (CV%)” value (10 mg SC, day 1 cycle 1, 6 h after dosing, n = 1, LC-MS/MS) was “NQ (not quantifiable (less than assay limit of quantification of 100 ng/mL))”. The “Plasma concentration … (CV%)” value (10 mg SC, day 1 cycle 1, 22 h after dosing, n = 1, LC-MS/MS) was “NQ (not quantifiable (less than assay limit of quantification of 100 ng/mL))”, the “Plasma concentration … (CV%)” value (10 mg SC, day 3 cycle 1, 5 h after dosing, n = 1, LC-MS/MS) was “NQ (not quantifiable (less than assay limit of quantification of 100 ng/mL))” and the “Plasma concentration … (CV%)” value (10 mg SC, day 18 cycle 1, 5 h after dosing, n = 1, LC-MS/MS) was “NQ (not quantifiable (less than assay limit of quantification of 100 ng/mL))”. For the same sequence, the “Plasma concentration … (CV%)” value (20 mg SC, day 1 cycle 1, 4 h after dosing, n = 1, LC-MS/MS) was “NQ (not quantifiable (less than assay limit of quantification of 100 ng/mL))”, the “Plasma concentration … (CV%)” value (20 mg SC, day 1 cycle 1, 5 h after dosing, n = 1, LC-MS/MS) was “NQ (not quantifiable (less than assay limit of quantification of 100 ng/mL))” and the “Plasma concentration … (CV%)” value (20 mg SC, day 1 cycle 1, 6 h after dosing, n = 1, LC-MS/MS) was “NQ (not quantifiable (less than assay limit of quantification of 100 ng/mL))”. The “Plasma concentration … (CV%)” value (20 mg SC, day 1 cycle 1, 22 h after dosing, n = 1, LC-MS/MS) was “NQ (not quantifiable (less than assay limit of quantification of 100 ng/mL))”, the “Plasma concentration … (CV%)” value (20 mg SC, day 3 cycle 1, 5 h after dosing, n = 1, LC-MS/MS) was “NQ (not quantifiable (less than assay limit of quantification of 100 ng/mL))” and the “Plasma concentration … (CV%)” value (20 mg SC, day 18 cycle 1, 5 h after dosing, n = 1, LC-MS/MS) was “NQ (not quantifiable (less than assay limit of quantification of 100 ng/mL))”. For the same sequence, the “Tmax, median” value (20 mg SC, day 18 cycle 2, n = 1, plasma LC-MS/MS) was 1 h, the “Plasma concentration … (CV%)” value (40 mg SC, day 1 cycle 1, 6 h after dosing, n = 1, LC-MS/MS) was “NQ (not quantifiable (less than assay limit of quantification of 100 ng/mL))” and the “Plasma concentration … (CV%)” value (40 mg SC, day 1 cycle 1, 22 h after dosing, n = 1, LC-MS/MS) was “NQ (not quantifiable (less than assay limit of quantification of 100 ng/mL))”. For the same sequence, the “Cmax, Gmean (CV)” value (40 mg SC, day 18 cycle 2, n = 1, plasma LC-MS/MS) was 583 ng/mL, the “Plasma concentration … (CV%)” value (80 mg SC, day 1 cycle 1, 22 h after dosing, n = 3, LC-MS/MS) was “NQ (not quantifiable (less than assay limit of quantification of 100 ng/mL))” and the “Tmax, median” value (80 mg SC, day 3 cycle 1, n = 3, plasma LC-MS/MS) was 1.5 h. For the same sequence, the “Plasma concentration … (CV%)” value (100 mg SC, day 1 cycle 1, 22 h after dosing, n = 4, LC-MS/MS) was “NQ (not quantifiable (less than assay limit of quantification of 100 ng/mL))”, the “Plasma concentration … (CV%)” value (160 mg SC, day 1 cycle 1, 22 h after dosing, n = 3, LC-MS/MS) was “NQ (not quantifiable (less than assay limit of quantification of 100 ng/mL))” and the “Tmax, median” value (160 mg SC, day 3 cycle 1, n = 3, plasma LC-MS/MS) was 1.52 h. For the same sequence, the “Tmax, median” value (160 mg SC, day 18 cycle 1, n = 3, plasma LC-MS/MS) was 1.5 h, the “Plasma concentration … (CV%)” value (200 mg SC, day 1 cycle 1, 22 h after dosing, n = 4, LC-MS/MS) was “NQ (not quantifiable (less than assay limit of quantification of 100 ng/mL))” and the “AUC0-t, Gmean (CV)” value (200 mg SC, day 18 cycle 2, n = 2, CV not calculated, plasma LC-MS/MS) was 5680 ng·h/mL. For the same sequence, the “Plasma concentration … (CV%)” value (300 mg SC, day 1 cycle 1, 22 h after dosing, n = 3, LC-MS/MS) was “NQ (not quantifiable (less than assay limit of quantification of 100 ng/mL))”, the “AUC0-t, Gmean (CV)” value (300 mg SC, day 18 cycle 1, n = 3, plasma LC-MS/MS) was 12,100 (6) ng.h/mL and the “Tmax, median” value (300 mg SC, day 18 cycle 2, n = 3, plasma LC-MS/MS) was 2 h. For the same sequence, the “Day 18:day 1 AUC0-t ratio, mean ± SD” value (cycle 1, all patients) was 1.27 ± 1.32, the “Day 18:day 1 Cmax ratio, mean ± SD” value (cycle 1, all patients) was 1.25 ± 0.97 and the “Day 18:day 1 AUC0-t ratio, mean ± SD” value [1] was 0.95 ± 0.26. For the same sequence, the “Day 18:day 1 Cmax ratio, mean ± SD” value [1] was 1.03 ± 0.39, the Half-life (human, plasma, sc) was about 1.5 h and the AUC(0-t) [2] was 485 ng·h/mL. For the same sequence, the AUC(0-t) [3] was 868 ng·h/mL, the AUC(0-t) [4] was 817 ng·h/mL and the AUC(0-t) [5] was 702 ng·h/mL. It also gave an AUC(0-t) [6] of 476 ng·h/mL, an AUC(0-t) [7] of 1040 ng·h/mL and a Cmax [2] of 200 ng/mL. For the same sequence, the Cmax [3] was 406 ng/mL, the Cmax [4] was 352 ng/mL and the Cmax [5] was 288 ng/mL. For the same sequence, the Cmax [6] was 193 ng/mL, the Cmax [7] was 470 ng/mL and the level at 0.25 h [8] was 106 ng/mL. For the same sequence, the level at 0.75 h [8] was 150 ng/mL, the level at 1.5 h (human, plasma, sc, 10 mg, Plasma concentration, geometric mean (CV%), 10 mg SC, day 1 cycle 1, 1.5 h after dosing, n = 1, LC-MS/MS) was 200 ng/mL and the level at 2 h (human, plasma, sc, 10 mg, Plasma concentration, geometric mean (CV%), 10 mg SC, day 1 cycle 1, 2 h after dosing, n = 1, LC-MS/MS) was 199 ng/mL. It also gave a level at 3 h (human, plasma, sc, 10 mg, Plasma concentration, geometric mean (CV%), 10 mg SC, day 1 cycle 1, 3 h after dosing, n = 1, LC-MS/MS) of 153 ng/mL, a level at 0.5 h (human, plasma, sc, 10 mg, Plasma concentration, geometric mean (CV%), 10 mg SC, day 3 cycle 1, 0.5 h after dosing, n = 1, LC-MS/MS) of 406 ng/mL and a level at 1 h (human, plasma, sc, 10 mg, Plasma concentration, geometric mean (CV%), 10 mg SC, day 3 cycle 1, 1 h after dosing, n = 1, LC-MS/MS) of 325 ng/mL. The level at 1.5 h (human, plasma, sc, 10 mg, Plasma concentration, geometric mean (CV%), 10 mg SC, day 3 cycle 1, 1.5 h after dosing, n = 1, LC-MS/MS) was 294 ng/mL, the level at 2 h (human, plasma, sc, 10 mg, Plasma concentration, geometric mean (CV%), 10 mg SC, day 3 cycle 1, 2 h after dosing, n = 1, LC-MS/MS) was 242 ng/mL and the level at 3.5 h (human, plasma, sc, 10 mg, Plasma concentration, geometric mean (CV%), 10 mg SC, day 3 cycle 1, 3.5 h after dosing, n = 1, LC-MS/MS) was 127 ng/mL. The level at 0.5 h (human, plasma, sc, 10 mg, Plasma concentration, geometric mean (CV%), 10 mg SC, day 18 cycle 1, 0.5 h after dosing, n = 1, LC-MS/MS) was 188 ng/mL, the level at 1 h (human, plasma, sc, 10 mg, Plasma concentration, geometric mean (CV%), 10 mg SC, day 18 cycle 1, 1 h after dosing, n = 1, LC-MS/MS) was 283 ng/mL and the level at 1.5 h (human, plasma, sc, 10 mg, Plasma concentration, geometric mean (CV%), 10 mg SC, day 18 cycle 1, 1.5 h after dosing, n = 1, LC-MS/MS) was 352 ng/mL. It also gave a level at 2 h (human, plasma, sc, 10 mg, Plasma concentration, geometric mean (CV%), 10 mg SC, day 18 cycle 1, 2 h after dosing, n = 1, LC-MS/MS) of 325 ng/mL, a level at 3.5 h (human, plasma, sc, 10 mg, Plasma concentration, geometric mean (CV%), 10 mg SC, day 18 cycle 1, 3.5 h after dosing, n = 1, LC-MS/MS) of 113 ng/mL and a level at 0.5 h (human, plasma, sc, 10 mg, Plasma concentration, geometric mean (CV%), 10 mg SC, day 18 cycle 2, 0.5 h after dosing, n = 1, LC-MS/MS) of 158 ng/mL. It also gave a level at 1 h (human, plasma, sc, 10 mg, Plasma concentration, geometric mean (CV%), 10 mg SC, day 18 cycle 2, 1 h after dosing, n = 1, LC-MS/MS) of 193 ng/mL, a level at 1.5 h (human, plasma, sc, 10 mg, Plasma concentration, geometric mean (CV%), 10 mg SC, day 18 cycle 2, 1.5 h after dosing, n = 1, LC-MS/MS) of 242 ng/mL and a level at 2 h (human, plasma, sc, 10 mg, Plasma concentration, geometric mean (CV%), 10 mg SC, day 18 cycle 2, 2 h after dosing, n = 1, LC-MS/MS) of 288 ng/mL. For the same sequence, the level at 3.5 h (human, plasma, sc, 10 mg, Plasma concentration, geometric mean (CV%), 10 mg SC, day 18 cycle 2, 3.5 h after dosing, n = 1, LC-MS/MS) was 161 ng/mL, the level at 1 h (human, plasma, sc, 10 mg, Plasma concentration, geometric mean (CV%), 10 mg SC, day 18 cycle 4, 1 h after dosing, n = 1, LC-MS/MS) was 176 ng/mL and the level at 1.5 h (human, plasma, sc, 10 mg, Plasma concentration, geometric mean (CV%), 10 mg SC, day 18 cycle 4, 1.5 h after dosing, n = 1, LC-MS/MS) was 193 ng/mL. It also gave a level at 2 h (human, plasma, sc, 10 mg, Plasma concentration, geometric mean (CV%), 10 mg SC, day 18 cycle 4, 2 h after dosing, n = 1, LC-MS/MS) of 171 ng/mL, a level at 3.5 h (human, plasma, sc, 10 mg, Plasma concentration, geometric mean (CV%), 10 mg SC, day 18 cycle 4, 3.5 h after dosing, n = 1, LC-MS/MS) of 157 ng/mL and a level at 0.5 h (human, plasma, sc, 10 mg, Plasma concentration, geometric mean (CV%), 10 mg SC, day 18 cycle 6, 0.5 h after dosing, n = 1, LC-MS/MS) of 171 ng/mL. For the same sequence, the level at 1.5 h (human, plasma, sc, 10 mg, Plasma concentration, geometric mean (CV%), 10 mg SC, day 18 cycle 6, 1.5 h after dosing, n = 1, LC-MS/MS) was 470 ng/mL, the level at 2 h (human, plasma, sc, 10 mg, Plasma concentration, geometric mean (CV%), 10 mg SC, day 18 cycle 6, 2 h after dosing, n = 1, LC-MS/MS) was 403 ng/mL and the level at 3.5 h (human, plasma, sc, 10 mg, Plasma concentration, geometric mean (CV%), 10 mg SC, day 18 cycle 6, 3.5 h after dosing, n = 1, LC-MS/MS) was 179 ng/mL. The Tmax [2] was 1.45 h, the Tmax [3] was 0.5 h and the Tmax [4] was 1.58 h. For the same sequence, the Tmax [5] was 2 h, the Tmax [6] was 1.53 h and the Tmax [7] was 1.85 h. It also gave an AUC(0-t) [9] of 1040 ng·h/mL, an AUC(0-t) [10] of 1160 ng·h/mL and an AUC(0-t) [11] of 718 ng·h/mL. The AUC(0-t) [12] was 1020 ng·h/mL, the Cmax [9] was 542 ng/mL and the Cmax [10] was 614 ng/mL. For the same sequence, the Cmax [11] was 319 ng/mL, the Cmax [12] was 394 ng/mL and the level at 0.25 h [13] was 136 ng/mL. The level at 0.75 h [13] was 368 ng/mL.
